Test results from patent publication US11033630B2, “Method and pharmaceutical composition for treatment of neurodegeneration” (priority 2016, dated 2021).
Like-named read-outs stand apart in the source and are kept apart here. Each block holds one compound with its values, some of them ahead of it.

Experiments:
[1] = tested on: streptozotocin (STZ)-induced model in C57BL/6 mice; experiment: Streptozotocin-induced model of Alzheimer disease; assay type: in vivo; settings: IP, Zn-DFO/Ga-DFO 2 and 6 mg/kg daily, Eu-DFO 4 mg/kg
Procedure: In this study, the therapeutic effect of metal-DFO complex on Alzheimer disease is tested, using the streptozotocin (STZ)-induced model in mice.
The disease is induced in 10 weeks old male C57BL/6 mice. The animals are placed into a stereotaxic frame for mice with nose and ear bars. STZ (3 mg/kg) or citrate buffer (for the control group) is injected bilaterally into the lateral ventricles at the following coordinates: AP—0.5 mm; ML ±1.1 mm; DV—2.8 mm relative to the bregma in a total volume of 1.5 μl to hemisphere. The injections are repeated 2 days after the first STZ injection (1.5 mg/kg). In order to confirm that the stereotaxic coordinates used throughout the study are suitable for STZ injection into lateral ventricles, FITC-labeled latex microspheres are injected into lateral ventricles and the presence of fluorescence in the surrounding brain tissue is examined 24 h after injection. Mice are treated with Zn-DFO or Ga-DFO daily, by IP injections of 2 mg/kg and 6 mg/kg, and with Eu-DFO as IP injection, 4 mg/kg. During 21 days of the experiment the mice undergo maze tests and novel object recognition (NOR) tests every 7 days. Clinical signs including general body condition and dehydration are monitored daily after the surgery. Every 7 days a representative number of mice is taken from each group and euthanized for Alzheimer's disease markers (amyloid-β protein, neurofilament expression, phosphorylation of Tau protein, synapsin expression) biochemical and histochemical evaluation (Ravelli et al., 2016).

[2] = tested on: MOG35-55-induced EAE in C57BL/6 mice; experiment: Experimental Autoimmune Encephalomyelitis (EAE), model for multiple sclerosis; assay type: in vivo
Procedure: In this study, the therapeutic effect of metal-DFO complex on multiple sclerosis (MS) is tested, using the Experimental Autoimmune Encephalomyelitis (EAE) in mice.
EAE is induced in 8-week-old female C57BL/6 mice by subcutaneous (SC) injection of 125 μg of myelin oligodendrocyte glycoprotein 35-55 peptide (MOG35-55) emulsified in complete Freund's adjuvant (CFA) containing 5 mg/ml heat-killed Mycobacterium tuberculosis into the left para-lumbar region. Immediately thereafter, and again at 48 h, the mice are inoculated intraperitoneal (IP) with 0.5 ml of pertussis toxin (400 ng). Seven days later, the mice are further challenged with an additional injection of MOG35-55 peptide in CFA injected into the right para-lumbar region. Mice are treated with Zn-DFO or Ga-DFO daily as IP injections, 2 mg/kg and 6 mg/kg.
The severity of the disease is assessed using the scale shown in Table 2 (Bittner et al., 2014).

[3] = tested on: MPTP model in C57BL/6 mice; experiment: MPTP mouse model of Parkinson's disease; assay type: in vivo; settings: 2 mg/kg daily IP
Procedure: In this study, the therapeutic effect of metal-DFO complex on Parkinson's disease is tested, using the 1-methyl-4-phenyl-1,2,3,6-tetrahydropyridine (MPTP) model in mice.
Parkinson's disease is induced in 10 weeks old male C57BL/6 mice by four continuous IP injections of 20 mg/kg of MPTP, every 2 hours and during 8 hours, for 5 days (Jackson-Lewis and Przedborski, 2007). The animals are treated with Zn-DFO or Ga-DFO by daily IP injections, 2 mg/kg and 6 mg/kg, 30 min prior to the first exposure to MPTP. On day 8 the animals are euthanized. Immediately after the euthanasia, the striata are dissected out to perform biochemical and histological assessment of the damage to dopaminergic innervation.

[4] = Blood-Brain Barrier (BBB) penetration: DFO concentration in rat brain after IP injection; settings: for DFO (mg/g organ) / DFO (mg/whole organ): rat brain, 90 min after IP injection
Procedure: (§1) In this study, the ability of the Zn-DFO complex to infiltrate into the brain was examined. Rats were injected intraperitoneally (IP) with increasing amounts of DFO alone or Zn-DFO complex, and the concentration of DFO was measured in their brains, thus monitoring their infiltrability.
(§2) In particular, male Sprague-Dawley (SD) rats (300 g average body weight, 3 animals per group) were injected IP with DFO (250, 500, or 1000 mg/kg body weight). For comparison, Zn-DFO solution in freshly prepared saline was injected IP (250, 500, or 1000 mg/kg body weight, which are equivalent to 883, 442, or 221 mg DFO/kg body weight, respectively).
(§3) The behavior of the rats was monitored for 90 min following the injection. Then, the animals were euthanized using an injection of ketamine-xylazine, and their hearts, livers, left kidneys, and brains were excised and weighted. Brain samples (300 mg tissue) were homogenized in 3 ml Lysis buffer. Tissue homogenates were incubated at 110° C. for 5 min and centrifuged for 5 min at 14,500 relative centrifugal force (RCF). An equal volume of 40% trichloroacetic acid (TCA) solution was added, forming a solution containing 20% TCA, which was vortexed and centrifuged again. The supernatants were transferred into cuvettes, and DFO concentration was spectrophotometrically measured, after addition of 10 mM of ferric iron solution (as a weak complex of iron, ferric-nitrilo-tri-acetate, at pH=7.4), and scanning the range of λ=380-580 nm. The final concentration was calculated according to the Beer-Lambert law, using εDFO=2460 M^−1cm^−1; the total amount of DFO per gram tissue and per whole brain were calculated.

[5] = complex with Ga(III); cited from earlier work
[6] = complex with Cu(II); cited from earlier work
[7] = complex with Fe(III); cited from earlier work
[8] = complex with Zn(II); cited from earlier work
[9] = Behavior of rats monitored after IP injection; settings: monitored for 90 min
Procedure: as §2
(§4) The behavior of the rats was monitored for 90 min following the injection.

[10] = rat, in vivo, ip
Procedure: as §2, §4

[11] = tested on: contusion spinal cord injury model in C57BL/6 mice; experiment: Contusion spinal cord injury model; assay type: in vivo; settings: 3 mg/kg IP
Procedure: In this study, the therapeutic effect of metal-DFO complex on spinal cord injury was tested, using a contusion spinal cord injury model in C57BL/6 mice.
A contusion spinal cord injury model was employed using Infinite Horizon spinal cord impactor. The injury was performed at force setting of 70 kilodyne, for 100 ms (milisecond) on exposed T12 vertebra of the mouse (8 weeks old male), anesthetized with a ketamine-xylazine mixture (85:15), and immobilized. Immediately before the impact, the mice were injected with buprenorphine (0.1 mg/ml/kg body weight) as an analgesic.
Twenty one mice, after contusion, were divided into three groups (n=7), according to their treatment as following (Basso et al., 2006): Group 1—control untreated; Group 2—treated with saline (IP injections of 100 μl on Days 1, 2, 3, 4, 6, 8, 10, 12, 14, 17, 20, 23, 27, 31, 35, 39, and 42); Group 3—treated with Zn-DFO complex, 3 mg/kg body weight in saline (IP injections of 100 μl according to the same regimen as Group 2). Both treated groups (saline and Zn-DFO complex) received the first treatment 10 min following the Impactor-induced trauma.
The post-traumatic recovery of mice locomotion with or without treatment was assessed on a daily basis for the next 43 days, using open field Basso mouse scale (BMS) score as following: 0—no ankle movement; 1—slight ankle movement; 2—extensive ankle movement; 3—plantar placing of the paw with or without weight support, or occasional, frequent or consistent dorsal stepping but no plantar stepping; 4—occasional plantar stepping; 5—frequent or consistent plantar stepping, no coordination, or frequent or consistent plantar stepping, some coordination, paws rotated at initial contact and lift off (R/R); 6—frequent or consistent plantar stepping, some coordination, paws parallel at initial contact (P/R, P/P), or frequent or consistent plantar stepping, mostly coordinated, paws rotated at initial contact and lift off (R/R); 7—frequent or consistent plantar stepping, mostly coordinated, paws parallel at initial contact and rotated at lift off (P/R), or frequent or consistent plantar stepping, mostly coordinated, paws parallel at initial contact and lift off (P/P), and severe trunk instability; 8—frequent or consistent plantar stepping, mostly coordinated, paws parallel at initial contact and lift off (P/P), and mild trunk instability, or frequent or consistent plantar stepping, mostly coordinated, paws parallel at initial contact and lift off (P/P), and normal trunk stability and tail down or up & down; and 9—frequent or consistent plantar stepping, mostly coordinated, paws parallel at initial contact and lift off (P/P), and normal trunk stability and tail always up (P—parallel; R—rotated). The values were normalized considering the basal score on Day 0 as 100%.
On Day 43, the animals were euthanized, and their spinal cords were excised and stored in paraformaldehyde (PFA) 4% for histological analysis. Epon blocks were prepared, and the histological analysis was performed after staining with methylene blue.

[12] = rat, in vivo, ip; remark: listed apart in the source
Procedure: as §1, §2, §3

H9C2 cardiomyocytes = experiment: Penetration of cellular membranes in tissue culture model; assay type: in vitro ADME; settings: data not shown
From the text: It is postulated that some of the useful effects exerted by DFO in inhibiting ROS formation are achieved through its actions as a chelating agent (chelant, chelator, or sequestering agent), capable of forming soluble complexes, i.e., chelates, with certain metal ions and consequently inactivating said metal ions such that they cannot normally react with other elements or ions. Such chelates often have chemical and biological properties that are markedly different from those of either the chelator or metal ion, alone. For example, whereas DFO is a molecule having a noodle-like structure that can sparingly infiltrate into cells, metal-chelates formed by said molecule, e.g., the zinc-, gallium- or iron-chelates, assume a globular structure capable of infiltrating into cells.

Compound: CC(=O)N([O-])CCCCCNC(=O)CCC(=O)N([O-])CCCCCNC(=O)CCC(=O)N([O-])CCCCCN.[Ga+3] [Ga-DFO, gallium-desferrioxamine B]
diminishing expression of synapsin [1]: attenuate this process dose-dependently
expression of Aβ protein and phosphorylation of Tau protein in the hippocampus [1]: inhibited
impairment of maze and NOR test outcomes [1]: (largely) prevent this impairment in a dose-dependent manner
onset of the disease ([2]; 2 mg/kg daily IP): 14 days
onset of the disease ([2]; 6 mg/kg daily IP): 15 days
number of TH-positive neurons within the substantia nigra (% of control) [3]: 65%

DFO (mg/g organ) ([4]; 250 mg/kg): <0.005 mg/g organ
DFO (mg/whole organ) ([4]; 250 mg/kg): <0.005 mg/whole organ
DFO (mg/g organ) ([4]; 500 mg/kg): <0.005 mg/g organ
DFO (mg/whole organ) ([4]; 500 mg/kg): <0.005 mg/whole organ
DFO (mg/g organ) ([4]; 1000 mg/kg): 0.008 ± 0.004 mg/g organ
DFO (mg/whole organ) ([4]; 1000 mg/kg): 0.019 ± 0.008 mg/whole organ
DFO infiltrated the brain (%) ([4]; rat, IP, 250 mg/kg): <0.0015%
DFO infiltrated the brain (%) ([4]; rat, IP, 500 mg/kg): <0.0015%
DFO infiltrated the brain (%) ([4]; rat, IP, 1000 mg/kg): 0.002%
fraction of DFO that had infiltrated into the brain ([4]; rat, IP, over the 3 doses (250, 500 and 1000 mg/kg)): ≤ 0.002%
Compound: CC(=O)N(O)CCCCCNC(=O)CCC(=O)N(O)CCCCCNC(=O)CCC(=O)N(O)CCCCCN [DFO, N′-[5-(Acetyl-hydroxy-amino)pentyl]-N-[5-[3-(5-aminopentyl-hydroxy-carbamoyl)propanoylamino]pentyl]-N-hydroxy-butane diamide]
relative stability constant of DFO complex [5]: 10^28
relative stability constant of DFO complex [6]: 10^14
relative stability constant of DFO complex [7]: 10^31
relative stability constant of DFO complex [8]: 10^11
changes in rats' behavior ([9]; IP 250 mg/kg): no changes in rats' behavior was observed
changes in rats' behavior ([9]; IP 500 mg/kg): no changes in rats' behavior was observed
changes in rats' behavior ([9]; IP 1000 mg/kg): no changes in rats' behavior was observed

changes in rats' behavior ([10]; 1000 mg/kg): passive and apathetic
infiltrability into the brain relative to DFO alone [12]: at least 8.6 fold
DFO (mg/g organ) ([12]; 250 mg/kg): 0.017 ± 0.002 mg/g organ
DFO (mg/whole organ) ([12]; 250 mg/kg): 0.032 ± 0.004 mg/whole organ
DFO infiltrated the brain (%) ([12]; 250 mg/kg): 0.014%
DFO (mg/g organ) ([12]; 500 mg/kg): 0.031 ± 0.001 mg/g organ
DFO (mg/whole organ) ([12]; 500 mg/kg): 0.054 ± 0.002 mg/whole organ
DFO infiltrated the brain (%) ([12]; 500 mg/kg): 0.012%
DFO (mg/g organ) ([12]; 1000 mg/kg): 0.072 ± 0.011 mg/g organ
DFO (mg/whole organ) ([12]; 1000 mg/kg): 0.133 ± 0.010 mg/whole organ
DFO infiltrated the brain (%) ([12]; 1000 mg/kg): 0.014%
ability to infiltrate into the cells relative to DFO alone (H9C2 cardiomyocytes): more than threefold higher
Compound: Zinc-desferrioxamine B [Zn-DFO]
diminishing expression of synapsin [1]: attenuate this process dose-dependently
expression of Aβ protein and phosphorylation of Tau protein in the hippocampus [1]: inhibited
impairment of maze and NOR test outcomes [1]: (largely) prevent this impairment in a dose-dependent manner
changes in rats' behavior ([10]; 250 mg/kg): no changes in the rats' behavior could be identified
changes in rats' behavior ([10]; 500 mg/kg): no changes in the rats' behavior could be identified
BMS score ([11]; Day 13): 5.1
normalized BMS score (% of initial scoring, Day 0) ([11]; Day 13): 347%
normalized BMS score (% of initial scoring), plateau ([11]; Day 29): 389%
BMS score, plateau ([11]; Day 29, scale 0-9): 5.7
density of axons and axonal myelin sheath in white matter ([11]; spinal cord histology, Day 43): restoring the density of axons and axonal myelin sheath
white matter area (fraction of the total area) ([11]; spinal cord histology, Day 43): 50.8±3.3%
body weight gain ([11]; vs non-treated or saline-treated animals): gained weight better than the non-treated or saline-treated animals
onset of the disease ([2]; 2 mg/kg daily IP): 14 days
onset of the disease ([2]; 6 mg/kg daily IP): 15 to 16 days
peak clinical score ([2]; 6 mg/kg daily IP, Day 19, Table 2 scale): less than 3
number of TH-positive neurons within the substantia nigra (% of control) [3]: 65%

Compound: CC(=O)N(O)CCCCCNC(=O)CCC(=O)N(O)CCCCCNC(=O)CCC(=O)N(O)CCCCCN.[Eu+3] [Eu-DFO]
diminishing expression of synapsin [1]: Only a minute effect
expression of Aβ protein and phosphorylation of Tau protein in the hippocampus [1]: slightly better than Ga-DFO
